# In patent US8039487B2, “Piperidine-amide derivatives” (Hoffmann-La Roche Inc., priority 2007, dated 2011):
# Biological target: T1, liver carnitine palmitoyl transferase 1 (L-CPT1) (Homo sapiens, UniProt P50416)
# T1 construct: made in house; host or cells: Pichia pastoris strain X-33 (crude cell-free extract)
# T1 sequence (P50416 1-773): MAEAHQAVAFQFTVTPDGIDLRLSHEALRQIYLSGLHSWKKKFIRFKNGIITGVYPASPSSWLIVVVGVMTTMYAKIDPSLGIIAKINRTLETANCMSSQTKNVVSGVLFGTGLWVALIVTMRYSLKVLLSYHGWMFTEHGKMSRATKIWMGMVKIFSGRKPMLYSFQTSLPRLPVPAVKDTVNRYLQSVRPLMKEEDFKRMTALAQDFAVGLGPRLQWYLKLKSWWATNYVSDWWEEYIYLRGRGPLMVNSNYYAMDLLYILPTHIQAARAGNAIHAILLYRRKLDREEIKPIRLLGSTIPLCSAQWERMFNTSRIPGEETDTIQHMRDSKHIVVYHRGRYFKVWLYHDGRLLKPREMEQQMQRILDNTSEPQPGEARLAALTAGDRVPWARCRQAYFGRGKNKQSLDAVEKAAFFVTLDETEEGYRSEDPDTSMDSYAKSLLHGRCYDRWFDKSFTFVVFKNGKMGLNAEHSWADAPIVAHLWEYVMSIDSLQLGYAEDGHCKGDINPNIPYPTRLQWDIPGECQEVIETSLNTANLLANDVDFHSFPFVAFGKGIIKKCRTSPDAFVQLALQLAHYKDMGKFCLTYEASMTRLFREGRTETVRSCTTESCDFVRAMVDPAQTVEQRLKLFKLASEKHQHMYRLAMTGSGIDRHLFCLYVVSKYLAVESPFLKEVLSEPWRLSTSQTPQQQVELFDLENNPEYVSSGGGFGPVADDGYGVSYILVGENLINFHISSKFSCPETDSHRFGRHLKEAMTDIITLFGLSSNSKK
# Test: L-CPT1 inhibition, spectrophotometric CPT activity assay with DTNB (Ellman's reagent)
# Type: biochemical
# Details: human liver CPT1 expressed in P. pastoris, cell extracts; carnitine 500 μM, palmitoyl-CoA 80 μM, DTNB 300 μM, pH 7.4
# Description: The following tests were carried out in order to determine the activity of the compounds of the present invention. Background information on the performed assays can be found in: Jackson et al., 1999, Biochem. J. 341, 483-489 and Jackson et al., 2000, J. Biol. Chem. 275, 19560-19566.
# Human liver and muscle CPT1 cDNAs and rat CPT2 cDNA were subcloned in pGAPZB or pGAPZA, respectively. These plasmids were used to transform P. pastoris strain X-33 via electroporation after the preparation of electrocompetent cells. High copy number clones were selected where necessary using 0.5 or 1 mg/ml Zeocin. Cultures for activity measurements were induced for 16 h in YPD medium (1% yeast extract, 2% peptone, 2% glucose). Crude cell extracts were prepared by disrupting the cells with glass beads or French Press, depending on fermenter sizes. After centrifugation, the cell-free extracts were resuspended in cell breaking buffer (50 mM Tris, pH7.4, 100 mM KCl, 1 mM EDTA) in the presence of a protease inhibitor cocktail, before aliquoting and freezing at −20° C.
# CPT activity was measured using a spectrophotometric assay using 5,5′-dithio-bis-(2-nitrobenzoic acid) (DTNB) also called Ellman's reagent. The HS-CoA released on the formation of acylcarnitine from carnitine (500 μM) and palmitoyl-CoA (80 μM) reduced DTNB (300 μM) forming 5-mercapto-(2-nitrobenzoic acid) which absorbed at 410 nm with a molar extinction coefficient of 13600 M^−1cm^−1. The assay buffer contained 120 mM KCl, 25 mM Tris, pH 7.4, 1 mM EDTA. This assay was used for the identification of selective inhibitors of the liver CPT1 isoform versus the muscle CPT1 and CPT2 isoforms.
row,Structure (SMILES),IC50
1,"O=C(COc1ccccc1)N1CCCC[C@@H]1c1nc(-c2ccc(Cl)cc2)cs1 [Example 1, 1-{(R)-2-[4-(4-Chloro-phenyl)-thiazol-2-yl]-piperidin-1-yl}-2-phenoxy-ethanone]",1400 nM
2,"O=C(COc1ccccc1)N1CCCC[C@@H]1c1nc(-c2ccccc2)cs1 [Example 2, 2-Phenoxy-1-[(R)-2-(4-phenyl-thiazol-2-yl)-piperidin-1-yl]-ethanone]",268 nM
3,"O=C(O)c1ccc(-c2csc([C@H]3CCCCN3C(=O)COc3ccccc3)n2)cc1 [Example 3, 4-{2-[(R)-1-(2-Phenoxy-acetyl)-piperidin-2-yl]-thiazol-4-yl}-benzoic acid]",129 nM
4,"O=C(COc1ccccc1)N1CCCC[C@@H]1c1nc(-c2ccc(OC(F)(F)F)cc2)cs1 [Example 4, 2-Phenoxy-1-{(R)-2-[4-(4-trifluoromethoxy-phenyl)-thiazol-2-yl]-piperidin-1-yl}-ethanone]",798 nM
5,"O=C(O)c1cccc(-c2csc([C@H]3CCCCN3C(=O)COc3ccccc3)n2)c1 [Example 5, 3-{2-[(R)-1-(2-Phenoxy-acetyl)-piperidin-2-yl]-thiazol-4-yl}-benzoic acid]",33.5 nM
6,"O=C(COc1ccccc1)N1CCCC[C@@H]1c1nc(-c2ccccn2)cs1 [Example 6, 2-Phenoxy-1-[(R)-2-(4-pyridin-2-yl-thiazol-2-yl)-piperidin-1-yl]-ethanone]",19.6 nM
7,"O=C(COc1ccccc1)N1CCCC[C@@H]1c1nc(-c2ccc(F)c(F)c2)cs1 [Example 7, 1-{(R)-2-[4-(3,4-Difluoro-phenyl)-thiazol-2-yl]-piperidin-1-yl}-2-phenoxy-ethanone]",286 nM
8,"O=C(COc1ccccc1)N1CCCC[C@@H]1c1nc(-c2cccnc2)cs1 [Example 8, 2-Phenoxy-1-[(R)-2-(4-pyridin-3-yl-thiazol-2-yl)-piperidin-1-yl]-ethanone]",25 nM
9,"COc1ccc(Cl)cc1-c1csc([C@H]2CCCCN2C(=O)COc2ccccc2)n1 [Example 9, 1-{(R)-2-[4-(5-Chloro-2-methoxy-phenyl)-thiazol-2-yl]-piperidin-1-yl}-2-phenoxy-ethanone]",247 nM
10,"O=C(COc1ccccc1)N1CCCC[C@@H]1c1nc(-c2ccncc2)cs1 [Example 10, 2-Phenoxy-1-[(R)-2-(4-pyridin-4-yl-thiazol-2-yl)-piperidin-1-yl]-ethanone]",68 nM
11,"COc1ccccc1-c1csc([C@H]2CCCCN2C(=O)COc2ccccc2)n1 [Example 11, 1-{(R)-2-[4-(2-Methoxy-phenyl)-thiazol-2-yl]-piperidin-1-yl}-2-phenoxy-ethanone]",272 nM
12,"CS(=O)(=O)c1ccc(-c2csc([C@H]3CCCCN3C(=O)COc3ccccc3)n2)cc1 [Example 12, 1-{(R)-2-[4-(4-Methanesulfonyl-phenyl)-thiazol-2-yl]-piperidin-1-yl}-2-phenoxy-ethanone]",141 nM
13,"COC(=O)c1cccc(-c2csc([C@H]3CCCCN3C(=O)COc3ccccc3)n2)n1 [Example 13, 6-{2-[(R)-1-(2-Phenoxy-acetyl)-piperidin-2-yl]-thiazol-4-yl}-pyridine-2-carboxylic acid methyl ester]",42.4 nM
14,"O=C1Cc2cc(-c3csc([C@H]4CCCCN4C(=O)COc4ccccc4)n3)ccc2N1 [Example 14, 5-{2-[(R)-1-(2-Phenoxy-acetyl)-piperidin-2-yl]-thiazol-4-yl}-1,3-dihydro-indol-2-one]",65.9 nM
15,"CC(=O)Nc1ccc(-c2csc([C@H]3CCCCN3C(=O)COc3ccccc3)n2)cc1 [Example 15, N-(4-{2-[(R)-1-(2-Phenoxy-acetyl)-piperidin-2-yl]-thiazol-4-yl}-phenyl)-acetamide]",32.6 nM
16,"O=C(COc1ccccc1)N1CCCC[C@@H]1c1nc(-c2ccc(O)cc2)cs1 [Example 16, 1-{(R)-2-[4-(4-Hydroxy-phenyl)-thiazol-2-yl]-piperidin-1-yl}-2-phenoxy-ethanone]",79.6 nM

row,Structure (SMILES),IC50
1,"O=C(COc1ccccc1)N1CCCC[C@@H]1c1nc(-c2ccc3c(c2)OCO3)cs1 [Example 17, 1-[(R)-2-(4-Benzo[1,3]dioxol-5-yl-thiazol-2-yl)-piperidin-1-yl]-2-phenoxy-ethanone]",134 nM
2,"CN(C)c1ccc(-c2csc([C@H]3CCCCN3C(=O)COc3ccccc3)n2)cc1 [Example 18, 1-{(R)-2-[4-(4-Dimethylamino-phenyl)-thiazol-2-yl]-piperidin-1-yl}-2-phenoxy-ethanone]",420 nM
3,"Cc1c(-c2csc([C@H]3CCCCN3C(=O)COc3ccccc3)n2)[nH]c2ccccc12 [Example 19, 1-{(R)-2-[4-(3-Methyl-1H-indol-2-yl)-thiazol-2-yl]-piperidin-1-yl}-2-phenoxy-ethanone]",330 nM
4,"N#Cc1ccc(-c2csc([C@H]3CCCCN3C(=O)COc3ccccc3)n2)cc1 [Example 20, 4-{2-[(R)-1-(2-Phenoxy-acetyl)-piperidin-2-yl]-thiazol-4-yl}-benzonitrile]",40.5 nM
5,"N#Cc1cccc(-c2csc([C@H]3CCCCN3C(=O)COc3ccccc3)n2)c1 [Example 21, 3-{2-[(R)-1-(2-Phenoxy-acetyl)-piperidin-2-yl]-thiazol-4-yl}-benzonitrile]",65 nM
6,"O=C(COc1ccccc1)N1CCCC[C@@H]1c1nc(-c2ccc(Cl)nc2)cs1 [Example 22, 1-{(R)-2-[4-(6-Chloro-pyridin-3-yl)-thiazol-2-yl]-piperidin-1-yl}-2-phenoxy-ethanone]",95 nM
7,"O=C(COc1ccccc1)N1CCCC[C@@H]1c1nc(-c2ccc(Br)s2)cs1 [Example 23, 1-{(R)-2-[4-(5-Bromo-thiophen-2-yl)-thiazol-2-yl]-piperidin-1-yl}-2-phenoxy-ethanone]",88.6 nM
8,"CC(=O)Nc1ccc(-c2nc([C@H]3CCCCN3C(=O)COc3ccccc3)cs2)cc1 [Example 25, N-(4-{4-[(R)-1-(2-Phenoxy-acetyl)-piperidin-2-yl]-thiazol-2-yl}-phenyl)-acetamide]",164 nM
9,"O=C(COc1ccccc1)N1CCCC[C@@H]1c1csc(-c2n[nH]c3ccccc23)n1 [Example 26, 1-{(R)-2-[2-(1H-Indazol-3-yl)-thiazol-4-yl]-piperidin-1-yl}-2-phenoxy-ethanone]",130 nM
10,"O=C(COc1ccccc1)N1CCCC[C@@H]1c1csc(-c2ccc(C(F)(F)F)nc2)n1 [Example 27, 2-Phenoxy-1-{(R)-2-[2-(6-trifluoromethyl-pyridin-3-yl)-thiazol-4-yl]-piperidin-1-yl}-ethanone]",313 nM
11,"O=C(COc1ccccc1)N1CCCC[C@@H]1c1csc(-c2ccc(C(F)(F)F)cn2)n1 [Example 28, 2-Phenoxy-1-{(R)-2-[2-(5-trifluoromethyl-pyridin-2-yl)-thiazol-4-yl]-piperidin-1-yl}-ethanone]",935 nM
12,"O=C(COc1ccccc1)N1CCCC[C@@H]1c1csc(-c2cnccn2)n1 [Example 29, 2-Phenoxy-1-[(R)-2-(2-pyrazin-2-yl-thiazol-4-yl)-piperidin-1-yl]-ethanone]",224 nM
13,"Cc1ccc(-c2nc([C@H]3CCCCN3C(=O)COc3ccccc3)cs2)cn1 [Example 30, 1-{(R)-2-[2-(6-Methyl-pyridin-3-yl)-thiazol-4-yl]-piperidin-1-yl}-2-phenoxy-ethanone]",88.7 nM
14,"O=C(COc1ccccc1)N1CCCC[C@@H]1c1csc(-c2cccnc2)n1 [Example 31, 2-Phenoxy-1-[(R)-2-(2-pyridin-3-yl-thiazol-4-yl)-piperidin-1-yl]-ethanone]",56.2 nM
15,"O=C(COc1ccccc1)N1CCCC[C@@H]1c1csc(-c2ccncc2)n1 [Example 32, 2-Phenoxy-1-[(R)-2-(2-pyridin-4-yl-thiazol-4-yl)-piperidin-1-yl]-ethanone]",150 nM
16,"COc1ccc(-c2nc([C@H]3CCCCN3C(=O)COc3ccccc3)cs2)cn1 [Example 33, 1-{(R)-2-[2-(6-Methoxy-pyridin-3-yl)-thiazol-4-yl]-piperidin-1-yl}-2-phenoxy-ethanone]",79.4 nM
